# Source: PubChem BioAssay (NCI)
#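 Assay format: 96-well plates, 48-hour exposure. GI50 marks 50% less growth. TGI marks complete inhibition of growth.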
# Assays:
# Assay in all cases: NCI tumour cell line growth inhibition, 48 h
# [1] = test system: PC-3 prostate
# [2] = test system: SNB-75 CNS
# [3] = test system: OVCAR-3 ovarian
# [4] = test system: EKVX NSCLC
# [5] = test system: OVCAR-5 ovarian
# [6] = test system: UACC-257 melanoma
# [7] = test system: HT29 colon
# [8] = test system: SF-539 CNS
# [9] = test system: 786-0 renal
# [10] = test system: MDA-MB-231 breast
# [11] = test system: HOP-92 NSCLC
# [12] = test system: HS 578T breast
# [13] = test system: IGROV1 ovarian
# [14] = test system: UACC-62 melanoma
# [15] = test system: SK-OV-3 ovarian
# [16] = test system: CAKI-1 renal
# [17] = test system: HCC-2998 colon
# [18] = test system: RPMI-8226 leukemia
# [19] = test system: NCI-H23 lung
# [20] = test system: DU-145 prostate
# [21] = test system: OVCAR-4 ovarian
# [22] = test system: SK-MEL-5 melanoma
# [23] = test system: SK-MEL-28 melanoma
# [24] = test system: SN12C renal
# [25] = test system: KM12 colon
# [26] = test system: ACHN renal
# [27] = test system: BT-549 breast
# [28] = test system: SF-295 CNS
# [29] = test system: COLO 205 colon
# [30] = test system: NCI-H226 lung
# [31] = test system: MOLT-4 leukemia
# [32] = test system: UO-31 renal
# [33] = test system: NCI/ADR-RES ovarian
# [34] = test system: A498 renal
# [35] = test system: MCF7 breast
# [36] = test system: U251 CNS
# [37] = test system: HCT-116 colon
# [38] = test system: SK-MEL-2 melanoma
# [39] = test system: T-47D breast
# [40] = test system: OVCAR-8 ovarian
# [41] = test system: SW-620 colon
# [42] = test system: TK-10 renal
# [43] = test system: HCT-15 colon
# [44] = test system: SR leukemia
# [45] = test system: A549 NSCLC
# [46] = test system: M14 melanoma
# [47] = test system: HOP-62 NSCLC
# [48] = test system: HL-60(TB) leukemia
# [49] = test system: SNB-19 CNS
# [50] = test system: MDA-MB-435
# [51] = test system: SF-268 CNS
# [52] = test system: CCRF-CEM leukemia
# [53] = test system: MALME-3M melanoma
# [54] = test system: NCI-H522 lung
# [55] = test system: NCI-H460 lung
# [56] = test system: LOX IMVI melanoma
smiles,measurement,setting,value
C[C@@H]1OC(O)[C@@H](F)[C@H](O)[C@@H]1O (some centres not stated),GI50,[1],> 100 µM
same,TGI,[1],> 100 µM
same,GI50,[2],> 100 µM
same,TGI,[2],> 100 µM
same,GI50,[3],> 100 µM
same,TGI,[3],> 100 µM
same,GI50,[4],> 100 µM
same,TGI,[4],> 100 µM
same,GI50,[5],> 100 µM
same,TGI,[5],> 100 µM
same,GI50,[6],> 100 µM
same,TGI,[6],> 100 µM
same,GI50,[7],> 100 µM
same,TGI,[7],> 100 µM
same,GI50,[8],> 100 µM
same,TGI,[8],> 100 µM
same,GI50,[9],> 100 µM
same,TGI,[9],> 100 µM
same,GI50,[10],> 100 µM
same,TGI,[10],> 100 µM
same,GI50,[11],> 100 µM
same,TGI,[11],> 100 µM
same,GI50,[12],> 100 µM
same,TGI,[12],> 100 µM
same,GI50,[13],> 100 µM
same,TGI,[13],> 100 µM
same,GI50,[14],> 100 µM
same,TGI,[14],> 100 µM
same,GI50,[15],> 100 µM
same,TGI,[15],> 100 µM
same,GI50,[16],> 100 µM
same,TGI,[16],> 100 µM
same,GI50,[17],> 100 µM
same,TGI,[17],> 100 µM
same,GI50,[18],> 100 µM
same,TGI,[18],> 100 µM
same,GI50,[19],> 100 µM
same,TGI,[19],> 100 µM
same,GI50,[20],> 100 µM
same,TGI,[20],> 100 µM
same,GI50,[21],> 100 µM
same,TGI,[21],> 100 µM
same,GI50,[22],> 100 µM
same,TGI,[22],> 100 µM
same,GI50,[23],> 100 µM
same,TGI,[23],> 100 µM
same,GI50,[24],> 100 µM
same,TGI,[24],> 100 µM
same,GI50,[25],> 100 µM
same,TGI,[25],> 100 µM
same,GI50,[26],> 100 µM
same,TGI,[26],> 100 µM
same,GI50,[27],> 100 µM
same,TGI,[27],> 100 µM
same,GI50,[28],> 100 µM
same,TGI,[28],> 100 µM
same,GI50,[29],> 100 µM
same,TGI,[29],> 100 µM
same,GI50,[30],> 100 µM
same,TGI,[30],> 100 µM
same,GI50,[31],> 100 µM
same,TGI,[31],> 100 µM
same,GI50,[32],> 100 µM
same,TGI,[32],> 100 µM
same,GI50,[33],> 100 µM
same,TGI,[33],> 100 µM
same,GI50,[34],> 100 µM
same,TGI,[34],> 100 µM
same,GI50,[35],> 100 µM
same,TGI,[35],> 100 µM
same,GI50,[36],> 100 µM
same,TGI,[36],> 100 µM
same,GI50,[37],> 100 µM
same,TGI,[37],> 100 µM
same,GI50,[38],> 100 µM
same,TGI,[38],> 100 µM
same,GI50,[39],> 100 µM
same,TGI,[39],> 100 µM
same,GI50,[40],> 100 µM
same,TGI,[40],> 100 µM
same,GI50,[41],> 100 µM
same,TGI,[41],> 100 µM
same,GI50,[42],> 100 µM
same,TGI,[42],> 100 µM
same,GI50,[43],> 100 µM
same,TGI,[43],> 100 µM
same,GI50,[44],> 100 µM
same,TGI,[44],> 100 µM
same,GI50,[45],> 100 µM
same,TGI,[45],> 100 µM
same,GI50,[46],> 100 µM
same,TGI,[46],> 100 µM
same,GI50,[47],> 100 µM
same,TGI,[47],> 100 µM
same,GI50,[48],> 100 µM
same,TGI,[48],> 100 µM
same,GI50,[49],> 100 µM
same,TGI,[49],> 100 µM
same,GI50,[50],> 100 µM
same,TGI,[50],> 100 µM
same,GI50,[51],> 100 µM
same,TGI,[51],> 100 µM
same,GI50,[52],> 100 µM
same,TGI,[52],> 100 µM
same,GI50,[53],> 100 µM
same,TGI,[53],> 100 µM
same,GI50,[54],> 100 µM
same,TGI,[54],> 100 µM
same,GI50,[55],> 100 µM
same,TGI,[55],> 100 µM
same,GI50,[56],> 100 µM
same,TGI,[56],> 100 µM
